For this experiment, the system named is fetal bovine heart-derived endothelial cells (FBHE cells). In words: Angiogenesis inhibiting activity test: inhibition of proliferation of cultured FBHE cells (neutral red uptake, 3 days). In kind it is cell-based. As to conditions: for IC50: Bos taurus, Endothelial cell, 3 days incubation, 10% FBS-added DME, 0.05% DMSO; for IC50 / FGF-/FGF+ ratio: FBHE cells; for FGF-/FGF+ ratio: ratio of IC50 without FGF to IC50 with FGF, 4320 min. The procedure: For use in this test, FBHE cells purchased from the ATCC were maintained by subculturing in a medium prepared by adding 20 ng/ml of fibroblast growth factor (FGF; Collaborative Research) to Dulbecco's modified Eagle's medium (DME; Nissui Seiyaku) supplemented with 10% fetal bovine serum (FBS). From two days before the start of the experiment, the addition of FGF was omitted and FBHE cells were cultured in DME with 10% FBS alone added. At the start of the experiment, the culture medium was removed, phosphate-buffered saline solution (PBS^(-); Nissui Seiyaku) was added instead, and cells were rinsed lightly. Then the PBS^(-) was removed, an adequate amount of 0.1% EDTA-0.2% trypsin solution was added and, after light rinsing, removed, and cells were stripped off. After addition of 10% FBS-added DME and sufficient pipetting, the cells stripped off were transferred to a centrifugal tube and centrifuged for washing (1,200 rpm, 5 minutes). The viable cell count was determined using a hemocytometer with the number of dead cells stained with trypan blue being substracted. The cell concentration was adjusted to 3×10^3 cells/well using 10% FBS-added DME. A cell suspension was thus prepared. […] For attaining test substance concentrations, serial double dilution was performed starting with 10 μg/ml. The following procedure was followed. Thus, to each well of 96-well Multiplates (Corning), there was added 50 μl of DME containing 10% FBS. Then, 50 μl of each test substance solution having the highest final concentration of 10 μg/ml was added to the well for the highest concentration and then serial dilution was carried out on each plate. Furthermore, 50 μl of FGF (5 ng/ml at maximum) was added to each well, followed by final addition of 100 μl of the cell suspension. The plates prepared by the above procedure were incubated in a carbon dioxide gas incubator for 3 days. After 3 days of incubation, neutral red was added to each well and the cells were allowed to take up the dye by 2 hours incubation in a carbon dioxide gas incubator. Thereafter, the cells were rinsed twice with PBS^(-) or physiological saline. Finally, 100 μl of acid alcohol (a 1:1 mixed solution prepared from 0.1 M aqueous monosodium phosphate solution and ethanol) was added to each well for dissolution thereinto of the dye taken up, and the absorbance of the resultant dye solution was determined using an absorptiometer. The absorbance values measured by the above procedure (3) for each dilution of each test substance with addition of FGF and without addition of FGF (normal condition) were plotted on a graph paper, and the test substance concentration required for 50% inhibition of the proliferation of cultured FBHE cells was determined from the graph obtained and expressed as an IC50 value.

Setting [1] is: 72 h, with addition of FGF (5 ng/ml at maximum).
Setting [2] is: 72 h, without addition of FGF (normal condition).

We go through nine compounds from US5104889A, “Thiazole derivatives” (Otsuka Pharmaceutical Factory, Inc., priority 1986, dated 1992).

≈ marks a conversion by molar mass, not a printed value.

Regarding `CC(C)(C)c1cc(Nc2nccs2)cc(C(C)(C)C)c1O` [Example 2, 2,6-Di-tert-butyl-4-[(2-thiazolyl)amino]phenol], the “FGF-/FGF+ ratio” value came to 12.0. Also, the IC50 – broadly, the concentration that inhibits the measured activity by half – under setting [1] turned out to be 0.89 µg/mL (≈ 2.92 µM). The IC50 under setting [2] came to 10.7 µg/mL (≈ 35.1 µM).
For `CCCCCc1sc(Nc2cc(C(C)(C)C)c(O)c(C(C)(C)C)c2)nc1C` [Example 6] the same measures were 4.2, 2.18 µg/mL (≈ 5.61 µM) and 9.21 µg/mL (≈ 23.7 µM).
As for `Cc1nc(Nc2cc(C(C)(C)C)c(O)c(C(C)(C)C)c2)sc1C` [Example 11, 2,6-Di-tert-butyl-4-[(4,5-dimethyl-2-thiazolyl)amino]phenol], the “FGF-/FGF+ ratio” value is recorded as 4.2. The “IC50 FGF-” value (72 h) turned out to be 25.94 µg/mL (≈ 78 µM). Under setting [1], this compound gave an IC50 of 6.14 µg/mL (≈ 18.5 µM).
For `CCSc1sc(Nc2cc(C(C)(C)C)c(O)c(C(C)(C)C)c2)nc1C` [Example 12, 2,6-Di-tert-butyl-4-[(4-methyl-5-ethylthio-2-thiazolyl)amino]phenol], the “FGF-/FGF+ ratio” value is listed as 4.2. Under setting [1], it took 1.55 µg/mL (≈ 4.09 µM) to reach half-maximal inhibition (IC50). 6.53 µg/mL (≈ 17.2 µM) corresponded to half-maximal inhibition under setting [2] (IC50).
For `CCOC(=O)c1sc(Nc2cc(C(C)(C)C)c(O)c(C(C)(C)C)c2)nc1C` [Example 18, 2,6-Di-tert-butyl-4-[(4-methyl-5-ethoxycarbonyl-2-thiazolyl)amino]phenol] the same measures were 6.2, 1.92 µg/mL (≈ 4.92 µM) and 11.9 µg/mL (≈ 30.5 µM).
With `CC(C)(C)c1cc(Nc2nc(CO)cs2)cc(C(C)(C)C)c1O.Cl.Cl` [Example 25, 2,6-di-tert-butyl-4-[(4-hydroxymethyl-2-thiazolyl)amino]phenol dihydrochlo ride], the “FGF-/FGF+ ratio” value worked out at 6.3. The compound also returned a 50% inhibitory concentration (IC50) under setting [1] of 0.92 µg/mL. Moreover, under setting [2], the IC50 came to 5.76 µg/mL.
Turning to `CC(C)(C)c1cc(Nc2nc(C(=O)NN)cs2)cc(C(C)(C)C)c1O` [Example 35, 2,6-di-di-tert-butyl-4-[(4-carbazoyl-2-thiazolyl)amino]phenol], the “FGF-/FGF+ ratio” value worked out at 6.0. For the same compound, under setting [1], the IC50 was 0.61 µg/mL (≈ 1.68 µM). The compound further yielded an IC50 under setting [2] of 3.66 µg/mL (≈ 10.1 µM).
The corresponding values for `CCOC(=O)c1csc(Oc2cc(C(C)(C)C)c(O)c(C(C)(C)C)c2)n1` [Example 40, 2,6-di-tert-butyl-4-[(4-ethoxycarbonyl-2-thiazolyl)oxy]phenol] are 7.7, 0.74 µg/mL (≈ 1.96 µM) and 5.72 µg/mL (≈ 15.2 µM).
Turning to `CC(C)(C)c1cc(Sc2nccs2)cc(C(C)(C)C)c1O` [Example 42, 2,6-Di-tert-butyl-4-(2-thiazolylthio)phenol], the “FGF-/FGF+ ratio” value was determined as 4.7. Inhibition under setting [1] was half-maximal at 1.85 µg/mL (≈ 5.75 µM) (IC50). This compound registered an IC50 under setting [2] of 8.71 µg/mL (≈ 27.1 µM).
